For series [1], the system named is human fibroblasts. Put plainly: Viability (ATP) of fibroblasts in presence of S10. It is filed as cell-based. Particulars: Fibroblast. Here is the method:
The ability of Examples S1-S23 to selectively induce cytotoxicity in glioma/glioblastoma cancer cells or glioma/glioblastoma cancer stem cells was determined by quantification of ATP production in glioma stem cell line U3013 in the presence of using CellTiterGlo reagent (Promega). Cells were exposed to compound in serial dilution in the range 1 nM to 50 µM for 24 hours and viability assessed with respect to negative control (dmso, no cell death) and positive control (staurosporine, full cell death). […] The EC50 of S10 remained largely similar at 2, 3 and 4 days of incubation. […] The individual isomers (S21-S23) of racemic S10 were evaluated in order to determine the enantiospecific pharmacology of the individual isomers.
For measuring cell viability, cytotoxicity and apoptosis in GSC/fibroblast/mGlia cells were grown in 384-well microtiter plates using procedure described above. […] Cell viability, cytotoxcity and apoptosis were measured using CellTiter-Glo® Luminescent Cell Viability Assay (Promega), CytoTox-Glo Cytotoxicity Assay and […], according to manufacturer's instructions. […] Luminescence was measured using a Victor3 FA (Perkin Elmer) microtiterplate reader and the level of released Caspase 3/7 quantified relative to control using GraphPad Prism (v6.02) software.

The nature of series [2]: Pharmacokinetic evaluation of Vacquinol-1 stereoisomers, plasma and brain. Conditions: for Cmax Brain / tlast Brain / tlast Plasma / AUC(0-t) / half-life / Tmax / Cmax: mice. The series is classed as in vivo, NMRI (SR/RS) or BALB/c (Vrac) mice. The method, then:
The pharmacokinetics of Vacquinol-1 (racemic), Vacquinol-1RS and Vacquinol-1SR, were determined in NMRI (SR/RS) or BALB/c (Vrac) mice following single intravenous (i.v.) or per oral (p.o) administration of 2 or 20 mg/kg Vacquinol-1, respectively. Blood and brain samples were taken from animals at the following nominal time points: 15, 30, and 60 minutes, and 2, 4, 6, 8, 24, 48, 72 and 144 hours after dosing (n=3/time-point). Bioanalytical quantification of Vacquinol-1 was analysed in plasma and brain samples by a UPLC-MS/MS.
Pharmacokinetics were calculated by non-compartmental analysis (NCA) from composite (mean) profiles. Nominal sampling times and dose levels have been used for the NCA calculations.

Structures are written as SMILES. Where two headings read alike, the source gives them in different places.

As for `OC(c1cc(-c2ccc(Cl)cc2)nc2ccccc12)C1CCCCN1` (racemic) [Compound S10, (2-(4-chlorophenyl)quinolin-4-yl)(piperidin-2-yl)methanol], the values for the EC50 in series [1] (after 24 hrs) and in series [1] (at 96 hours) were 18.7 µM and 23 µM, respectively. In addition, the entries for the “Cmax Brain” value in series [2] (2 mg/kg i.v.) and in series [2] (20 mg/kg p.o.) were 514 ng/mL and 1860 ng/mL, respectively. Also, the “tlast Brain” value in series [2] (2 mg/kg i.v.) and in series [2] (20 mg/kg p.o.) was 144 h in each case. The “tlast Plasma” value in series [2] (2 mg/kg i.v.) and in series [2] (20 mg/kg p.o.) was 144 h each time. The Kp in series [2] (NMRI (single stereoisomers SR/RS), BALB/c (racemate), mouse, brain and plasma, 20 mg/kg, after oral dosing, read-out: relative brain/plasma exposure ratio (AUClast(brain)/AUClast(plasma))) was determined as 0.6. The AUC(0-t) in series [2] (NMRI (single stereoisomers SR/RS), BALB/c (racemate), mouse, brain, iv, 2 mg/kg i.v., read-out: AUClast Brain) turned out to be 20.4 µg·h/mL; in series [2] (NMRI (single stereoisomers SR/RS), BALB/c (racemate), mouse, brain, po, 20 mg/kg p.o., read-out: AUClast Brain) it was 167 µg·h/mL; in series [2] (NMRI (single stereoisomers SR/RS), BALB/c (racemate), mouse, plasma, iv, 2 mg/kg i.v., read-out: AUClast Plasma) it was 64.5 µg·h/mL; in series [2] (NMRI (single stereoisomers SR/RS), BALB/c (racemate), mouse, plasma, po, 20 mg/kg p.o., read-out: AUClast Plasma), 292 µg·h/mL. The half-life in series [2] (NMRI (single stereoisomers SR/RS), BALB/c (racemate), mouse, brain, iv, 2 mg/kg i.v., read-out: t1/2 Brain (converted)) is 63 h; in series [2] (NMRI (single stereoisomers SR/RS), BALB/c (racemate), mouse, plasma, iv, 2 mg/kg i.v., read-out: t1/2 Plasma (converted)), 52 h. Also, the Tmax in series [2] (NMRI (single stereoisomers SR/RS), BALB/c (racemate), mouse, brain, po, 20 mg/kg p.o., read-out: tmax Brain) stood at 48 h; in series [2] (NMRI (single stereoisomers SR/RS), BALB/c (racemate), mouse, plasma, po, 20 mg/kg p.o., read-out: tmax Plasma), 24 h. Also, the Cmax in series [2] (NMRI (single stereoisomers SR/RS), BALB/c (racemate), mouse, plasma, iv, 2 mg/kg i.v.) worked out at 467 ng/mL; in series [2] (NMRI (single stereoisomers SR/RS), BALB/c (racemate), mouse, plasma, po, 20 mg/kg p.o.), 3280 ng/mL. Besides, the “Cmax exposures ratio (Cmax(brain)/Cmax(plasma))” value in series [2] (after oral dosing) amounted to 0.6.

The values above are taken from patent publication US20160214958A1, “COMPOUNDS AND USE FOR TREATING CANCER” (GLIONOVA AB, priority 2013, published 2016).
